Reference: patent US8691861B2, “Prodrugs of inhibitors of plasma kallikrein” (ActiveSite Pharmaceuticals, Inc., priority 2011, dated 2014)
Non-standard residues stand in square brackets, D forms with d. *: point of attachment. CH2Cl = ClC*

Columns and labels:
[1] = Conversion of prodrug in vivo: plasma levels of the active plasma kallikrein inhibitor after oral dosing of the prodrug; design: species or system Sprague-Dawley rats; settings: rats, 25 mg/kg oral in PEG400
Protocol: Young male Sprague-Dawley rats were orally dosed at 25 mg/kg with the prodrug 1-(4-fluorophenyl)-N-[[4-(N′-hydroxycarbamimidoyl)phenyl]methyl]-2,5-dimethyl-pyrrole-3-carboxamide dissolved in PEG400. Blood was removed at various time intervals via an arterial catheter into a citrated collection tube, and plasma generated by centrifugation. The concentration of the active plasma kallikrein inhibitor N-[(4-carbamimidoylphenyl)methyl]-1-(4-fluorophenyl)-2,5-dimethyl-pyrrole-3-carboxamide in the plasma samples were determined using LC/MS/MS.

[2] = angiotensin-II-induced; cited from earlier work
[3] = rat model of ischemic stroke; cited from earlier work
[4] = model of hemorrhagic stroke; cited from earlier work
[5] = diabetic animals; cited from earlier work
[6] = rat models of arthritis; cited from earlier work
[7] = cited from earlier work
[8] = LPS or bacterial induced sepsis in animals; cited from earlier work
[9] = cited from earlier work; remark: listed apart in the source
[10] = mouse model of middle cerebral artery occlusion; cited from earlier work

Molecule: Cc1cc(C(=O)NCc2ccc(/C(N)=N/O)cc2)c(C)n1-c1ccc(F)cc1 [1-(4-fluorophenyl)-N-[[4-(N′-hydroxycarbamimidoyl)phenyl]methyl]-2,5-dimethyl-pyrrole-3-carboxamide]
- absorption from the gastrointestinal tract following oral dosing [1]: absorbed from the gastrointestinal tract
- conversion in vivo into the active compound [1]: effectively converted in vivo

Molecule: N=C(N)c1ccc(CNC(=O)c2cnn(Cc3ccccc3)c2)cc1 [ASP-440]
- elevated systolic blood pressure [2]: reduce
- cerebrovascular edema [3]: reduce
- infarction volume [3]: reduce
- expansion of intracerebral hemorrhage [4]: reduce
- plasma leakage into the retina [5]: inhibits

Molecule: Cl.NCC1CCC(C(=O)N[C@@H](Cc2ccccc2)C(=O)Nc2ccc(CC(=O)O)cc2)CC1 (stereo partly shown) [PKSI-527]
- joint swelling [6]: reduce

Molecule: NC(N)=NCCC[C@@H](N)C(=O)N[C@@H](CCCN=C(N)N)C(=O)N1CCC[C@H]1C(=O)N1C[C@H](O)C[C@H]1C(=O)NCC(=O)N[C@@H](Cc1cccs1)C(=O)N[C@@H](CO)C(=O)N1Cc2ccccc2C[C@@H]1C(=O)N1[C@H](C(=O)N[C@@H](CCCN=C(N)N)C(=O)O)C[C@@H]2CCCC[C@@H]21 [icatibant]
- effectiveness in treating HAE [7]: effective

Molecule: H-[dP]-Phe-Arg-CH2Cl
- lesions [8]: reduce

B1: C1-INH: the major endogenous inhibitor of PK (protein, UniProt P05155 23-500, looked up)
Plasma protease C1 inhibitor: NPNATSSSSQDPESLQDRGEGKVATTVISKMLFVEPILEVSSLPTTNSTTNSATKITANTTDEPTTQPTTEPTTQPTIQPTQPTTQLPTDSPTQPTTGSFCPGPVTLCSDLESHSTEAVLGDALVDFSLKLYHAFSAMKKVETNMAFSPFSIASLLTQVLLGAGENTKTNLESILSYPKDFTCVHQALKGFTTKGVTSVSQIFHSPDLAIRDTFVNASRTLYSSSPRVLSNNSDANLELINTWVAKNTNNKISRLLDSLPSDTRLVLLNAIYLSAKWKTTFDPKKTRMEPFHFKNSVIKVPMMNSKKYPVAHFIDQTLKAKVGQLQLSHNLSLVILVPQNLKHRLEDMEQALSPSVFKAIMEKLEMSKFQPTLLTLPRIKVTTSQDMLSIMEKLEFFDFSYDLNLCGLTEDPDLQVSAMQHQTVLELTETGVEAAAASAISVARTLLVFEVQQPFLFVLWDQQHKFPVFMGRVYDPRA
- clinical outcome in sepsis patients [9]: Clinical improvement
- infarct size [10]: reduced
- lesions [8]: reduce
